Experiments:
[1] = system: EBNA1 monomer homodimerization; settings: peptide P4; cited from earlier work
Source text: (§1) Epstein–Barr nuclear antigen 1 (EBNA1) is the only viral protein expressed in nearly all forms of EBV latency and its associated cancers which plays a vital role in the maintenance of viral genome ([3]). EBNA1 is also important for the transcriptional activation of some other EBV latency genes ([4]). Homodimerization of EBNA1 is known to be critical for EBNA1–DNA binding and the subsequent functions of oriP (latent origin of replication), including viral DNA replication and segregation, maintenance of the EBV episomal genome, and transcriptional activation ([5]). Thus, EBNA1 not only serves as ...

[2] = system: EBV-infected cells; settings: peptide P4; cited from earlier work
Source text: as §1

[3] = system: infectious EBV particles from HONE-1-EBV cells; experiment: EBV infection assay (Raji cell assay, virions from HONE-1-EBV); type: cell-based, Epstein–Barr virus; settings: 10 µM, 4 d, triplicate, P = 0.009 (ZRL5P4), P = 0.06 (ZRL5P2)
[4] = system: EBV-positive NPC43, C666-1 and Raji cells; experiment: MTT cytotoxicity, EBV-positive cell panel; type: cell-based; settings: 1 to 20 µM, 5 d
[5] = Fluorescence response toward Zn2+; type: binding; settings: 2 µM probe, excitation 337 nm
[6] = system: EBV-positive C666-1 and NPC43 cells; experiment: Two-photon imaging, subcellular localization in EBV-positive cells; type: cell-based; settings: 10 µM, 3 h, two-photon λex 700 nm
[7] = system: C666-1 xenograft; experiment: C666-1 xenograft, intratumoral injection; settings: 4 µg per injection twice weekly, 18 d, n = 5
[8] = system: Rta, BMRF1, gp350/220 in NPC43 cells; experiment: Western blot of lytic proteins in NPC43; type: cell-based, Epstein–Barr virus; settings: 10 µM, 7 d
Source text: Fig. 5. EBV lytic induction analysis of EBV-positive tumors and cells in response to the EBNA1 probes. (A) IHC analysis of lytic proteins Zta, BMRF1, and VCA-p18 in the transplanted C666-1–derived tumor tissues as described in Fig. 4 E–G. Representative results are shown. […] Insets (in the red boxes) are the enlarged images to indicate the cellular localization of the 3 proteins. Negative control staining images are included for the mouse antibodies (mAb) against Zta and BMRF1 and for the rat antibody (rAb) against VCA-p18. Magnification, 400×. […] TPA/NaB (20 ng/mL TPA, 3 mM NaB) serves as a positive control of lytic induction. The presence of these 4 lytic proteins is indicated by red signals. The nuclei were stained with DAPI. […] Acetylated histone H3 (Ac-Histone H3) was also detected. β-actin serves as the loading control. […] The gene expression was analyzed by qRT-PCR. The fold change of relative gene expression after each treatment was compared with the solvent control (DMSO). Data are expressed as the means ± CI.
Western blot analysis of Zta, Rta, BMRF1, and gp350/220 was performed as reported ([41]). The Rta antibody was supplied from Argene (Verniolle) and the β-actin antibody for loading control was supplied from Cell Signaling Technology. Antibodies against Zta, BMRF1, gp350/220, Dicer1, and PML were the ones used for IF staining. A 1:400 dilution of the primary antibodies was used.

[9] = system: HeLa xenograft; settings: 4 μg/injection every three days, 19 days, vs control
[10] = molecular target: the molecule itself; experiment: self-association assay read by SDS-PAGE and anti-His Western blot

For CAhxYFMVFGGRrRK [P4], the EBNA1 homodimerization [1] is listed as “able to interfere with the homodimerization of the EBNA1 monomer” and the EBV-infected cell growth [2] is listed as “suppress EBV-infected cell growth”.

With YFMVF [ZRL5P2] the “Virion production versus DMSO control” value [3] was 2.6 fold, the “Growth-inhibitory effect, comparison” value [4] was “the least efficient one” and the “Emission change upon addition of Zn2+” value ([5]; 2 equiv. Zn2+, CH3CN/0.05 M Hepes pH 7.4, 50:50) was “slightly blue-shifted emission”. The “Maximum emission wavelength, without Zn2+” value ([5]; CH3CN/0.05 M Hepes pH 7.4, 50:50, absence of Zn2+) was 448 nm, the “Maximum emission wavelength, with Zn2+” value ([5]; CH3CN/0.05 M Hepes pH 7.4, 50:50, presence of Zn2+) was 445 nm and the Subcellular localization [6] was “only found in the cytoplasm”. For the same molecule, the Tumor growth [7] was “did not significantly affect tumor growth”, the “Rta and BMRF1 expression” value [8] was “much weaker than those of ZRL5P4” and the Body weights [9] was “did not cause any significant changes in body weights”.

B1: Full-length EBNA1 (residues 1 to 641) with an N-terminal His tag (ab138345; Abcam) (natural protein)
chain: MSDEGPGTGPGNGLGEKGDTSGPEGSGGSGPQRRGGDNHGRGRGRGRGRGGGRPGAPGGSGSGPRHRDGVRRPQKRPSCIGCKGTHGGTGAGAGAGGAGAGGAGAGGGAGAGGGAGGAGGAGGAGAGGGAGAGGGAGGAGGAGAGGGAGAGGGAGGAGAGGGAGGAGGAGAGGGAGAGGGAGGAGAGGGAGGAGGAGAGGGAGAGGAGGAGGAGAGGAGAGGGAGGAGGAGAGGAGAGGAGAGGAGAGGAGGAGAGGAGGAGAGGAGGAGAGGGAGGAGAGGGAGGAGAGGAGGAGAGGAGGAGAGGAGGAGAGGGAGAGGAGAGGGGRGRGGSGGRGRGGSGGRGRGGSGGRRGRGRERARGGSRERARGRGRGRGEKRPRSPSSQSSSSGSPPRRPPPGRRPFFHPVGEADYFEYHQEGGPDGEPDVPPGAIEQGPADDPGEGPSTGPRGQGDGGRRKKGGWFGKHRGQGGSNPKFENIAEGLRALLARSHVERTTDEGTWVAGVFVYGGSKTSLYNLRRGTALAIPQCRLTPLSRLPFGMAPGPGPQPGPLRESIVCYFMVFLQTHIFAEVLKDAIKDLVMTKPAPTCNIRVTVCSFDDGVDLPPWFPPMVEGAAAEGDDGDDGDEGGDGDEGEEGQE
notes: source: bought: Abcam (ab138345); not shown: His tag, N-terminal, kept
With B1 the “stoichiometry N” value [10] was 2.
